Among the data in paper PMC2504886 (The Journal of Biological Chemistry, 2008) are Kd values, retold here.

This test addresses T1, T. maritima CopA (WT CopA) (Thermotoga maritima, UniProt Q9WYF3).
T1 sequence (Q9WYF3 1-726): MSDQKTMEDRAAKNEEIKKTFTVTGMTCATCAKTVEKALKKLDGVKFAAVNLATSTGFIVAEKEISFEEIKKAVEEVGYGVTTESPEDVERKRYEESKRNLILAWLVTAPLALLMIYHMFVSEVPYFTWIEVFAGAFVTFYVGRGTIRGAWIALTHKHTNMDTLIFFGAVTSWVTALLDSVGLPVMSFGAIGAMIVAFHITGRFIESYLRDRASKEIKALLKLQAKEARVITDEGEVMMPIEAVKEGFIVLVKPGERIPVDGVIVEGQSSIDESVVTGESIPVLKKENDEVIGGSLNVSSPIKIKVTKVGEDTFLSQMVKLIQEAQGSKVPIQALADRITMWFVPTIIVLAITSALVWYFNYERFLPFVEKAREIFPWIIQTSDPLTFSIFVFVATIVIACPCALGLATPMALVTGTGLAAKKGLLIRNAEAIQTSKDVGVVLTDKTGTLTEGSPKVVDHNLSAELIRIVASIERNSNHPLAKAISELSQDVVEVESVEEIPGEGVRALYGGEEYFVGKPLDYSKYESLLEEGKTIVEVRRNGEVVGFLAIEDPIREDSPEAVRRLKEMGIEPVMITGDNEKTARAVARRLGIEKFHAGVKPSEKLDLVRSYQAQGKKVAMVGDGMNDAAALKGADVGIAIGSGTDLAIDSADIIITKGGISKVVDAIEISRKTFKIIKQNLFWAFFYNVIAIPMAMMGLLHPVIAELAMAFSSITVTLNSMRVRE
In words: phosphoenzyme. In kind it is binding.

As usually defined, the Kd is the concentration at which binding is half-saturated. For `O=P(O)(O)O` [Pi], the Kd was determined as 3.3 µM.
